Measurements taken from ChEMBL document CHEMBL1201862, “PubChem BioAssay data set” (2004).
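Step 1: Grow cells in 96-well plates. Step 2: Expose to compound for 48 hours at 5 concentrations. Step 3: Interpolate endpoints linearly; if unreached, use highest concentration. The concentration for 50% growth inhibition is given as GI50.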 Activity calls are given as the source filed them. No stated cut-off is given here; in the data, active = GI50 up to about 1.1 µM and inactive = higher.

Legend:
Assay in all cases: growth of human tumour cells (NCI), 48 h
[1] = system: SF-295
[2] = system: SF-539
[3] = system: NCI-H23
[4] = system: EKVX
[5] = system: OVCAR-5
[6] = system: HOP-62
[7] = system: OVCAR-4
[8] = system: CCRF-CEM
[9] = system: ACHN
[10] = system: A498
[11] = system: M14
[12] = system: KM12
[13] = system: IGROV-1
[14] = system: SK-MEL-5
[15] = system: OVCAR-3
[16] = system: COLO 205

Row | Structure (SMILES) | GI50 [1] | GI50 [2] | GI50 [3] | GI50 [4] | GI50 [5] | GI50 [6] | GI50 [7] | GI50 [8] | GI50 [9] | GI50 [10] | GI50 [11] | GI50 [12] | GI50 [13] | GI50 [14] | GI50 [15] | GI50 [16]
1 | CCOC(=O)N[C@H]1CCc2cc(O)c(OC)c(OC)c2-c2ccc(SC)c(=O)cc21 | 0.0123 µM (active) | 0.0137 µM (active) | 0.0157 µM (active) | 0.483 µM (active) | 0.614 µM (active) | 0.0386 µM (active) | 8 µM (inactive) | < 0.0139 µM (active) | 0.069 µM (active) | 0.0208 µM (active) | < 0.01 µM (active) | 0.0154 µM (active) | 0.0479 µM (active) | 0.0127 µM (active) | 0.0123 µM (active) | 0.141 µM (active)
2 | COC(=O)C(C(=O)C(=O)Nc1nc2ccc(OC)cc2s1)c1cnc2ccccc2n1 (centres undefined) | > 100 µM (inactive) | > 100 µM (inactive) | > 100 µM (inactive) | > 100 µM (inactive) | > 100 µM (inactive) | > 100 µM (inactive) | > 100 µM (inactive) | – | > 100 µM (inactive) | > 100 µM (inactive) | > 100 µM (inactive) | > 100 µM (inactive) | > 100 µM (inactive) | > 100 µM (inactive) | > 100 µM (inactive) | > 100 µM (inactive)
3 | CN1CCN(CCSC2Cc3cc(Cl)ccc3Sc3ccccc32)CC1 (centres undefined) | 4.18 µM (inactive) | 3.15 µM (inactive) | 7.89 µM (inactive) | 15.1 µM (inactive) | 5.37 µM (inactive) | 12.7 µM (inactive) | 6.81 µM (inactive) | – | 8.36 µM (inactive) | 6.41 µM (inactive) | 1.91 µM (inactive) | 3.46 µM (inactive) | 10.3 µM (inactive) | 3.26 µM (inactive) | 8.2 µM (inactive) | 1.74 µM (inactive)
4 | CCOc1ccc(NC2=NC(=O)C(CC(=O)Nc3ccc(Cl)cc3Cl)S2)cc1 (centres undefined) | > 100 µM (inactive) | > 100 µM (inactive) | > 100 µM (inactive) | > 100 µM (inactive) | > 100 µM (inactive) | > 100 µM (inactive) | > 100 µM (inactive) | 21.6 µM (inactive) | > 100 µM (inactive) | 68.7 µM (inactive) | > 100 µM (inactive) | > 100 µM (inactive) | > 100 µM (inactive) | > 100 µM (inactive) | > 100 µM (inactive) | > 100 µM (inactive)
5 | Cn1c2c(cc(-c3ccccc3)c1=O)COc1ccccc1-2 | 25.8 µM (inactive) | 49.1 µM (inactive) | 26.9 µM (inactive) | 9.04 µM (inactive) | 14.5 µM (inactive) | 42.3 µM (inactive) | 37.8 µM (inactive) | 30.5 µM (inactive) | 24 µM (inactive) | 40.6 µM (inactive) | 31.6 µM (inactive) | 13 µM (inactive) | 35.5 µM (inactive) | 17.5 µM (inactive) | 26.4 µM (inactive) | 29 µM (inactive)
6 | O=C(Nc1nc2ncn(CCNCCn3cnc4nc(NC(=O)c5ccccc5)[nH]c(=O)c43)c2c(=O)[nH]1)c1ccccc1 | > 100 µM (inactive) | > 100 µM (inactive) | > 100 µM (inactive) | > 100 µM (inactive) | > 100 µM (inactive) | > 100 µM (inactive) | > 100 µM (inactive) | > 100 µM (inactive) | > 100 µM (inactive) | > 100 µM (inactive) | > 100 µM (inactive) | > 100 µM (inactive) | > 100 µM (inactive) | > 100 µM (inactive) | > 100 µM (inactive) | > 100 µM (inactive)
7 | CCCCOC(=O)NC(=O)c1cn(CCSCCOC(=O)NCCCCCCNC(=O)OCCSCCn2cc(C(=O)NC(=O)OCCCC)c(=O)[nH]c2=O)c(=O)[nH]c1=O | 26.6 µM (inactive) | > 100 µM (inactive) | 27.4 µM (inactive) | 91.4 µM (inactive) | > 100 µM (inactive) | 44.6 µM (inactive) | > 100 µM (inactive) | – | > 100 µM (inactive) | 29.4 µM (inactive) | 58.9 µM (inactive) | > 100 µM (inactive) | 37.7 µM (inactive) | > 100 µM (inactive) | > 100 µM (inactive) | > 100 µM (inactive)
8 | COc1ccc(CC#N)c(OCc2ccccc2)c1 | 60 µM (inactive) | > 100 µM (inactive) | 77.8 µM (inactive) | 30.7 µM (inactive) | – | > 100 µM (inactive) | 71.6 µM (inactive) | > 100 µM (inactive) | 27 µM (inactive) | 11.2 µM (inactive) | 35.6 µM (inactive) | 61.5 µM (inactive) | 29.4 µM (inactive) | 19.7 µM (inactive) | 80.5 µM (inactive) | 40.4 µM (inactive)
9 | FC(F)(F)c1ccccc1C1SCc2nc3ccccc3n21 (centres undefined) | 57.1 µM (inactive) | 85.7 µM (inactive) | 34 µM (inactive) | 41.1 µM (inactive) | 28.8 µM (inactive) | – | – | 27.4 µM (inactive) | 40.6 µM (inactive) | 12.3 µM (inactive) | – | 70.8 µM (inactive) | 60.1 µM (inactive) | > 10 µM (inactive) | 40.1 µM (inactive) | 59.8 µM (inactive)
10 | COc1ccc(NC(=O)C(=O)C2CNC(=O)NC2=O)c(OC)c1 (centres undefined) | > 100 µM (inactive) | > 100 µM (inactive) | > 100 µM (inactive) | > 100 µM (inactive) | > 100 µM (inactive) | > 100 µM (inactive) | > 100 µM (inactive) | > 100 µM (inactive) | > 100 µM (inactive) | – | > 100 µM (inactive) | > 100 µM (inactive) | > 100 µM (inactive) | > 100 µM (inactive) | > 100 µM (inactive) | > 100 µM (inactive)
11 | COc1cc2ccc(CC(=O)O)cc2cc1OC | – | – | > 100 µM (inactive) | > 100 µM (inactive) | – | > 100 µM (inactive) | > 100 µM (inactive) | > 100 µM (inactive) | > 100 µM (inactive) | > 100 µM (inactive) | > 100 µM (inactive) | > 100 µM (inactive) | > 100 µM (inactive) | > 100 µM (inactive) | > 100 µM (inactive) | > 100 µM (inactive)
12 | Cc1ccc(C(=O)c2nnc(C(=O)c3ccc(C)cc3)nn2)cc1 | 52.8 µM (inactive) | 38.9 µM (inactive) | > 100 µM (inactive) | 59.6 µM (inactive) | 81.1 µM (inactive) | 39.4 µM (inactive) | 41.1 µM (inactive) | 18.8 µM (inactive) | 76 µM (inactive) | – | 22.2 µM (inactive) | 62.7 µM (inactive) | 95.9 µM (inactive) | 50.9 µM (inactive) | 43.4 µM (inactive) | 70.1 µM (inactive)
13 | O=[N+]([O-])c1cccc(C2=NN(c3ccccc3)C3c4cc(Br)ccc4OCC23)c1 (centres undefined) | > 100 µM (inactive) | > 100 µM (inactive) | > 100 µM (inactive) | 87.7 µM (inactive) | > 100 µM (inactive) | > 100 µM (inactive) | – | > 100 µM (inactive) | > 100 µM (inactive) | > 100 µM (inactive) | – | 81.8 µM (inactive) | > 100 µM (inactive) | > 100 µM (inactive) | > 100 µM (inactive) | > 100 µM (inactive)
14 | O=C(O)c1ccc(/N=N/c2cc(S(=O)(=O)O)c3cccnc3c2O)cc1 | > 100 µM (inactive) | > 100 µM (inactive) | > 100 µM (inactive) | > 100 µM (inactive) | > 100 µM (inactive) | > 100 µM (inactive) | > 100 µM (inactive) | – | > 100 µM (inactive) | > 100 µM (inactive) | – | > 100 µM (inactive) | > 100 µM (inactive) | > 100 µM (inactive) | > 100 µM (inactive) | > 100 µM (inactive)
15 | Cc1ccc(-c2c(N)nc(NC#N)nc2CCC(=O)Nc2ccccc2[N+](=O)[O-])cc1 | > 100 µM (inactive) | > 100 µM (inactive) | > 100 µM (inactive) | > 100 µM (inactive) | > 100 µM (inactive) | > 100 µM (inactive) | > 100 µM (inactive) | > 100 µM (inactive) | > 100 µM (inactive) | > 100 µM (inactive) | > 100 µM (inactive) | > 100 µM (inactive) | > 100 µM (inactive) | > 100 µM (inactive) | > 100 µM (inactive) | > 100 µM (inactive)
16 | CN(C)c1snc2c1c(=O)n(C)c(=O)n2C | > 100 µM (inactive) | > 100 µM (inactive) | > 100 µM (inactive) | 40.1 µM (inactive) | > 100 µM (inactive) | > 100 µM (inactive) | > 100 µM (inactive) | > 100 µM (inactive) | > 100 µM (inactive) | > 100 µM (inactive) | – | – | > 100 µM (inactive) | > 100 µM (inactive) | > 100 µM (inactive) | > 100 µM (inactive)
17 | CCOC(=O)N1c2c(ccn2C)-c2ccn(C)c2N1C(=O)OCC | 15.3 µM (inactive) | 20 µM (inactive) | – | – | 17.4 µM (inactive) | > 100 µM (inactive) | > 10 µM (inactive) | 2.64 µM (inactive) | 15.8 µM (inactive) | 44.1 µM (inactive) | 15.1 µM (inactive) | 19.9 µM (inactive) | 24.9 µM (inactive) | > 100 µM (inactive) | 14.1 µM (inactive) | 22.7 µM (inactive)
18 | O=C(O)CN(c1ccccc1)S(=O)(=O)c1ccc(Cl)cc1 | – | > 100 µM (inactive) | > 100 µM (inactive) | > 100 µM (inactive) | > 100 µM (inactive) | – | > 100 µM (inactive) | > 100 µM (inactive) | > 100 µM (inactive) | > 100 µM (inactive) | > 100 µM (inactive) | – | > 100 µM (inactive) | – | – | > 100 µM (inactive)
19 | O=C(O)CS [THIOGLYCOLIC ACID] | > 100 µM (inactive) | > 100 µM (inactive) | > 100 µM (inactive) | > 100 µM (inactive) | > 100 µM (inactive) | – | > 100 µM (inactive) | > 100 µM (inactive) | – | – | – | > 100 µM (inactive) | > 100 µM (inactive) | > 100 µM (inactive) | – | > 100 µM (inactive)
